Assay [1] deals with Rhipicephalus sanguineus (Dog Tick). Nature of the assay: Activity in vitro against Rhipicephalus sanguineus (dog tick), Assay A, contact test. To be noted: adult ticks; for pest or weed control at 100 ppm: Rhipicephalus sanguineus, 168 h, 28° C. and 80% relative humidity for 7 days, read-out: efficacy (EC80). The procedure: Activity In Vitro Against Rhipicephalus sanguineus (Dog Tick)—Assay A
A contact test is performed by pre-coating microplate with serial dilution of compound allowing evaluating anti-parasitic activity by contact against ticks. A mixed adult tick population is then distributed to each well of the plate and incubated at 28° C. and 80% relative humidity for 7 days, during which the effect of the test compound is monitored. Acaricidal activity is confirmed if and when adult ticks are dead.

Assay [2] deals with Rhipicephalus sanguineus Nymphs. Nature of the assay: Activity in vivo against Rhipicephalus sanguineus nymphs on Mongolian gerbils. To be noted: topical, 0 h, pour on application day 0, tick number reduction vs placebo, Abbott's formula, read-out: efficacy (EC90). How it is done:
On day 0, gerbils are treated with the test compound at a given dose by pour on application. On day +1 (+2), the animals are infested with nymphs of R. sanguineus. Ticks are left on the animals until full repletion. Seven days after infestation nymphs dropped off fully engorged are collected and counted. They are kept until molting to also evaluate growth regulating activity of the test compound. Efficacy in killing (and growth regulating) is expressed as a tick number (and molted tick number) reduction in comparison with a placebo treated group, using the Abbott's formula:
n=number of live ticks. T=treated group. Co=control/placebo group.

Assay [3] relates to Ctenocephalides Felis (Cat Flea). In words: Activity in vitro against Ctenocephalides felis (cat flea), Assay A. To be noted: adult fleas fed on treated blood for 24 h; for pest or weed control at 100 ppm: Ctenocephalides felis, dead fleas counted, read-out: efficacy (EC80). How it is done: Activity In Vitro Against Ctenocephalides Felis (Cat Flea)—Assay A
A mixed adult population of fleas is placed in a suitably formatted 96-well plate allowing fleas to access and feed on treated blood via an artificial feeding system. Fleas are fed on treated blood for 24 h, after which the compound effect is recorded. Insecticidal activity is determined on the basis of the number of dead fleas recovered from the feeding system.

In assay [4] the test system is Engorged Female Rhipicephalus microplus (Cattle Tick). In words: Activity in vitro against engorged female Rhipicephalus microplus (cattle tick), contact test. To be noted: 672 h, organophosphorous-resistant Ultimo strain, evaluation 28 days later on mortality, oviposition and hatched larvae, read-out: efficacy (EC80). The procedure:
Activity In Vitro Against Engorged Female Rhipicephalus microplus (Cattle Tick)
A contact test is performed by pre-coating 6-well microplates with serial dilution of the compound to be evaluated for anti-parasitic activity. 10 engorged female ticks of the organophosphorous-resistant Ultimo strain are distributed to each well in triplicates. Plates are then incubated at 28° C. and 80% relative humidity. Evaluation takes place 28 days later based on mortality, oviposition and hatched larvae. […] Activity In Vivo Against Rhipicephalus sanguineus Nymphs on Mongolian Gerbils (Meriones unguiculatus) (Spray Application)

Assay [5] has as its system Lucilla Cuprina (Australian sheep blowfly). In words: Activity in vitro against Lucilla cuprina (Australian sheep blowfly), Assay A. To be noted: eggs on agar-based medium; for pest or weed control at 32 ppm: Lucilia cuprina, 96 h, 4 days at 28° C. and 60% relative humidity, read-out: efficacy (EC80). How it is done:
Activity in vitro against Lucilla Cuprina (Australian sheep blowfly)—Assay A
Freshly laid blowfly eggs are used to seed a suitably formatted microplate containing the test substances to be evaluated for antiparasitic activity. Each compound is tested by serial dilution in order to determine its minimum efficacy dose. The test compounds are embedded in an agar-based nutritive medium allowing the full development of the eggs into 3rd instar larvae. The incubation lasts for 4 days at 28° C. and 60% relative humidity. Egg-hatching and ensuing larval development are also recorded to identify a possible growth-regulating activity.

In a further assay the test system is Lice (Polyplax serrata). Nature of the assay: Activity in vivo against lice (Polyplax serrata) in mice (topical). To be noted: pour-on application, live lice on day +4 and +14, Henderson & Tilton formula, read-out: efficacy (EC90). How it is done: Activity In Vivo Against Lice (Polyplax serrata) in Mice (Topical) Mice naturally infected with P. serrata are treated with the formulated test compound on day 0 by pour-on application. On day +4 and +14, efficacy is evaluated by counting the number of live lice under a binocular. Efficacy at the two time points is expressed as a comparison of lice numbers counted on the same mouse before treatment, using the Henderson & Tilton formula, taking also into account lice numbers found on mice treated with the empty formulation (placebo group): [formula] n=number of lice, T=treated group, Co=control/placebo group.

Bounds are passed on as bounds.

As for `C#CCN(C(=O)c1cc(Cl)cc(C(F)(F)F)c1)C(C)c1ncnn1-c1ncccn1` (stereo not shown) [Example 41, 3-Chloro-N-prop-2-ynyl-N-[1-(2-pyrimidin-2-yl-1,2,4-triazol-3-yl)ethyl]-5-(trifluoromethyl)benzamide], the pest or weed control at 100 ppm in assay [1] and in assay [3] was over 80% each time. Also, the EC50 in assay [1] (7 days) was determined as 32 ppm; in assay [5] (4 days at 28° C.), 1 ppm. Moreover, the inhibition in vivo at 32 mg/kg (in assay [2]; in the assay on Lice (Polyplax serrata)) was over 90% in each case. Besides, the pest or weed control at 200 ppm in assay [4] was over 80%. For the same compound, in assay [5], the pest or weed control at 32 ppm was over 80%.

In the case of `C#CCN(C(=O)c1cc(C(F)(F)F)cc(C(F)(F)F)c1)C(C)c1ncnn1-c1ncccn1` (stereo not shown) [Example 35, N-Prop-2-ynyl-N-[1-(2-pyrimidin-2-yl-1,2,4-triazol-3-yl)ethyl]-3,5-bis(trifluoromethyl)benzamide], the pest or weed control at 100 ppm in assay [1] and in assay [3] was over 80% throughout. For the same compound, the inhibition in vivo at 32 mg/kg (in assay [2]; in the assay on Lice (Polyplax serrata)) was over 90% throughout. In addition, in assay [4], the pest or weed control at 200 ppm is over 80%. Besides, the pest or weed control at 32 ppm in assay [5] is over 80%.

Turning to `CC(c1ncnn1-c1ncccn1)N(CC1CC1)C(=O)c1cc(C(F)(F)F)cc(C(F)(F)F)c1` (stereo not shown) [Example 48, N-(Cyclopropylmethyl)-N-[1-(2-pyrimidin-2-yl-1,2,4-triazol-3-yl)ethyl]-3,5-bis(trifluoromethyl)benzamide], the pest or weed control at 100 ppm in assay [1] and in assay [3] was over 80% throughout. For the same compound, the inhibition in vivo at 32 mg/kg (in assay [2]; in the assay on Lice (Polyplax serrata)) was over 90% each time. In addition, in assay [4], the pest or weed control at 200 ppm is over 80%. Also, in assay [5], the pest or weed control at 32 ppm is over 80%.

Consider `C[C@@H](c1ncnn1-c1ncccn1)N(CC1CC1)C(=O)c1cc(C(F)(F)F)cc(C(F)(F)F)c1` [Example 49, N-(Cyclopropylmethyl)-N-[(1S)-1-(2-pyrimidin-2-yl-1,2,4-triazol-3-yl)ethyl]-3,5-bis(trifluoromethyl)benzamide], for which the pest or weed control at 100 ppm in assay [1] and in assay [3] was over 80% in each case. Moreover, the inhibition in vivo at 32 mg/kg (in assay [2]; with Lice (Polyplax serrata)) was over 90% throughout. In addition, in assay [5], the pest or weed control at 32 ppm is over 80%.

As to `CC(c1ncnn1-c1ccccn1)N(CC1CC1(F)F)C(=O)c1cc(C(F)(F)F)cc(C(F)(F)F)c1` (stereo not shown) [Example 16, N-[(2,2-Difluorocyclopropyl)methyl]-N-[1-[2-(2-pyridyl)-1,2,4-triazol-3-yl]ethyl]-3,5-bis(trifluoromethyl)benzamide], the inhibition in vivo at 32 mg/kg (in assay [2]; with Lice (Polyplax serrata)) was over 90% in each case. Also, the pest or weed control at 100 ppm in assay [3] is over 80%. For the same compound, in assay [4], the pest or weed control at 200 ppm was over 80%. For the same compound, the pest or weed control at 32 ppm in assay [5] is over 80%.

Turning to `CC(c1ncnn1-c1ncccn1)N(CC1CC1)C(=O)c1cncc(C(F)(F)F)c1` (stereo not shown) [Example 28, N-(Cyclopropylmethyl)-N-[1-(2-pyrimidin-2-yl-1,2,4-triazol-3-yl)ethyl]-5-(trifluoromethyl)pyridine-3-carboxamide], the pest or weed control at 100 ppm in assay [1] and in assay [3] was over 80% each time. For the same compound, the inhibition in vivo at 32 mg/kg (in assay [2]; in the assay with Lice (Polyplax serrata)) was over 90% throughout. Moreover, in assay [5], the pest or weed control at 32 ppm was over 80%.

As for `CC(c1ncnn1-c1ncccn1)N(CC1CC1)C(=O)c1cc(Cl)cc(C(F)(F)F)c1` (stereo not shown) [Example 40, 3-Chloro-N-(cyclopropylmethyl)-N-[1-(2-pyrimidin-2-yl-1,2,4-triazol-3-yl)ethyl]-5-(trifluoromethyl)benzamide], the pest or weed control at 100 ppm in assay [1] and in assay [3] was over 80% throughout. For the same compound, the inhibition in vivo at 32 mg/kg (in assay [2]; with Lice (Polyplax serrata)) was over 90% throughout. Also, the pest or weed control at 200 ppm in assay [4] is over 80%. The pest or weed control at 32 ppm in assay [5] is over 80%.

`CC(c1ncnn1-c1ccccn1)N(CCF)C(=O)c1cc(C(F)(F)F)cc(C(F)(F)F)c1` (stereo not shown) [Example 11, N-(2-Fluoroethyl)-N-[1-[2-(2-pyridyl)-1,2,4-triazol-3-yl]ethyl]-3,5-bis(trifluoromethyl)benzamide]: the pest or weed control at 100 ppm in assay [1] and in assay [3] was over 80% throughout. Further, the inhibition in vivo at 32 mg/kg (in assay [2]; in the assay with Lice (Polyplax serrata)) was over 90% in each case. For the same compound, the pest or weed control at 200 ppm in assay [4] was over 80%. Also, in assay [5], the pest or weed control at 32 ppm was over 80%.

Take `CC(c1ncnn1-c1ccccn1)N(CCC(F)(F)F)C(=O)c1cc(C(F)(F)F)cc(C(F)(F)F)c1` (stereo not shown) [Example 12, N-[1-[2-(2-Pyridyl)-1,2,4-triazol-3-yl]ethyl]-3,5-bis(trifluoromethyl)-N-(3,3,3-trifluoropropyl)benzamide]: the pest or weed control at 100 ppm in assay [1] is over 80%. Moreover, the inhibition in vivo at 32 mg/kg (in assay [2]; with Lice (Polyplax serrata)) was over 90% in each case. For the same compound, in assay [4], the pest or weed control at 200 ppm is over 80%. In addition, in assay [5], the pest or weed control at 32 ppm was over 80%.

As for `CC(c1ncnn1-c1ncccn1)N(CCC(F)(F)F)C(=O)c1cc(C(F)(F)F)cc(C(F)(F)F)c1` (stereo not shown) [Example 20, N-[1-(2-Pyrimidin-2-yl-1,2,4-triazol-3-yl)ethyl]-3,5-bis(trifluoromethyl)-N-(3,3,3-trifluoropropyl)benzamide], the pest or weed control at 100 ppm in assay [1] and in assay [3] was over 80% each time. Moreover, the inhibition in vivo at 32 mg/kg (in assay [2]; with Lice (Polyplax serrata)) was over 90% in each case. In addition, the pest or weed control at 200 ppm in assay [4] was over 80%. In addition, in assay [5], the pest or weed control at 32 ppm is over 80%.

For the compound `CC(c1ncnn1-c1ccccn1)N(CC1CC1)C(=O)c1cc(Cl)cc(OC(F)(F)F)c1` (stereo not shown) [Example 10, 3-Chloro-N-(cyclopropylmethyl)-N-[1-[2-(2-pyridyl)-1,2,4-triazol-3-yl]ethyl]-5-(trifluoromethoxy)benzamide], the pest or weed control at 100 ppm in assay [1] and in assay [3] was over 80% throughout. For the same compound, the inhibition in vivo at 32 mg/kg (in assay [2]; with Lice (Polyplax serrata)) was over 90% each time. The pest or weed control at 200 ppm in assay [4] was over 80%. The pest or weed control at 32 ppm in assay [5] is over 80%.

For the compound `CC(c1ncnn1-c1ncccn1)N(CC1CC1)C(=O)c1cc(Cl)cc(OC(F)(F)F)c1` (stereo not shown) [Example 37, 3-chloro-N-(cyclopropylmethyl)-N-[1-(2-pyrimidin-2-yl-1,2,4-triazol-3-yl)ethyl]-5-(trifluoromethoxy)benzamide], the pest or weed control at 100 ppm in assay [1] and in assay [3] was over 80% in each case. Besides, the inhibition in vivo at 32 mg/kg (in assay [2]; with Lice (Polyplax serrata)) was over 90% each time. In addition, in assay [4], the pest or weed control at 200 ppm was over 80%. For the same compound, in assay [5], the pest or weed control at 32 ppm is over 80%.

`C#CCN(C(=O)c1cc(Cl)cc(OC(F)(F)F)c1)C(C)c1ncnn1-c1ccccn1` (stereo not shown) [Example 18, 3-Chloro-N-prop-2-ynyl-N-[1-[2-(2-pyridyl)-1,2,4-triazol-3-yl]ethyl]-5-(trifluoromethoxy)benzamide]: the inhibition in vivo at 32 mg/kg in assay [2] is over 90%. Also, in assay [3], the pest or weed control at 100 ppm is over 80% and the EC80 was found to be 10 ppm. In addition, in assay [4], the pest or weed control at 200 ppm was over 80%. The pest or weed control at 32 ppm in assay [5] was over 80%. Moreover, in the assay on Lice (Polyplax serrata), the inhibition in vivo at 32 mg/kg was over 90%.

Source of the values: US10287276B2, “Heteroaryl-1,2,4-triazole and heteroaryl-tetrazole compounds for controlling ectoparasites” (Elanco Tiergesundheit AG, priority 2016, dated 2019).
